The test system of assay [1] is bacteria's from the nerve fiber. Put plainly: Bacteria on nerve fiber of pulp removed by pulpectomy, phase contrast microscopy without staining. The class given is cell-based. As for the experimental part:
A patent diagnosed with acute pulpitis with severe signs of pain on cold irritants, percussion pain with x-ray deep caries radiolucent areas adjacent to the coronal pulp. Hyperemia is evident in the dental canal system when opening of the coronal part of pulp chamber.
Pulpectomy (Removal of the entire pulp structure of a tooth, including the pulp tissue in the roots) was performed. The pulp was analyzed by phase contrast microscopy without staining.
Following Pulpectomy a solution of 0.1 ml CBD (25%) was applied for 1 min.
The same application was made with a Clorhexidine gluconate 2% solution used in endodontics to rinse canal system of the roots. A reduction of less than 20% in bacteria's was observed.

Assay [2] concerns chronic irreversible pulpitis combined with periapical lesion. Kind of assay: Root canal treatment with CBD added to dressing and sealer, bone regeneration by X-ray (Patient 1). In kind it is in vivo, human. How it is done:
Histology slides prepared after pulpectomy of a second mandibular molar diagnosed with chronic irreversible pulpitis combined with periapical lesion (FIG. 6).
The treatment was performed with regular methods, in 2 steps 1 week rest. In the temporary dressing of the root canal medication Hydroxide Calcium was introduced 0.1 ml of CBD (25%) as well in the permanent sealer EWT Ken pulp sealer was introduced 0.5 ml of CBD (25%), pulp canal system sealed with sealer and gutta-percha.
With standard treatment for periapical lesion, regeneration is usually noticed 6 months after treatment.

Assay [3] deals with pulp extract from the teeth. Put plainly: Pulp extract treated in-vitro and sent to pathology lab (samples 1a, 1b). In kind it is cell-based, human. The note with it: 0.1 ml of Clorhexidine Gluconate 2% (sample 1a) or CBD 25% (sample 1b). How it is done:
The pulp extract from the teeth was treated in-vitro and was sent to pathology lab. Pulp was extracted and separated to two samples:
Sample 1a was treated with 0.1 ml Clorhexidine Gluconate 2%.

The test system of another assay is vestibular canal pulp. Kind of assay: Extracted dental pulp of hemisected wisdom tooth treated with CBD solution (samples 3a, 3b). The class given is cell-based, human. The note with it: sample 3b, 0.1 ml 25% solution, compared to 3a (Formalin). As for the experimental part: A patient with chronic irreversible pulpitis element 28 wisdom tooth.
The element was hemisected and dental pulp extracted from tooth.
Sample 3a: Palatinal pulp was placed in Formalin.
Sample 3b: 0.1 ml CDB (25%) solution was applied to the vestibular canal pulp.

Another assay deals with live bacterial cells. Kind of assay: Anti-bacterial activity on inflamed dental pulp and dental plaque samples, Dojindo staining, Cytation 5 imaging. In kind it is cell-based. As to conditions: incubated for 5 min. As for the experimental part: CDB Solutions: Two CBD solutions were prepared at concentrations of 12.5% and 25% by dissolving CDB (as powder, 98% purity) in methanol to obtain the desired concentration.
Samples of inflamed dental pulp and dental plaque were collected from various subjects and incubated at 37° C. for 24 hours
The samples where then treated with CBD solutions (12.5% and 25%) and incubated for 5 min. The samples were stained with Dojindo Rapid staining kit BS02 and evaluated under a Cytation 5 cell imaging microscope.

The subject of the next assay is mid-femoral fractures. The note with it: rats with mid-femoral fractures, after eight weeks; cited from earlier work.
The conditions of assay [4]: relative to THC; cited from earlier work.

Results on three molecules are retold here after patent US11612581B2, “Cannabis and derivatives thereof for the treatment of pain and inflammation related with dental pulp and bone regeneration related to dental jaw bone defects” (CANNIBITE BVBA, priority 2017, dated 2023).

Consider `C=C(C)[C@@H]1CCC(C)=C[C@H]1c1c(O)cc(CCCCC)cc1O` [CBD, cannabidiol], for which the “reduction of bacteria's from the nerve fiber” value in assay [1] (0.1 ml CBD (25%) applied for 1 min following pulpectomy) is “total reduction”. In assay [2] (8 weeks after treatment), the “bone regeneration on re-examination” value is reported as “total regeneration”. Moreover, in assay [2] (after 1 week, 0.1 ml CBD (25%) in Hydroxide Calcium dressing, 0.5 ml CBD (25%) in sealer), the “bone regeneration in the apical region by X-ray” value is reported as “bone regeneration was identified”. Further, the “pathology lab findings of treated pulp sample” value in assay [3] is “connective tissue, bone and no bacteria”. The “inflammation and infection of pulp sample” value in the assay with vestibular canal pulp was “no inflammation and no infection”. Also, the “reduction in live bacterial cells as compared to an untreated sample” value in the assay with live bacterial cells (12.5% CBD solution) is greater than 75%; with live bacterial cells (25% CBD solution), greater than 90%. Moreover, the bone fractures healing result in the assay with mid-femoral fractures is “enhances bone fractures healing”.

For the molecule `N=C(NCCCCCCNC(=N)NC(=N)Nc1ccc(Cl)cc1)NC(=N)Nc1ccc(Cl)cc1.O=C(O)[C@H](O)[C@@H](O)[C@H](O)[C@H](O)CO.O=C(O)[C@H](O)[C@@H](O)[C@H](O)[C@H](O)CO` [Clorhexidine gluconate], in assay [1] (Clorhexidine gluconate 2% solution, same application), the “reduction in bacteria's” value is given as “less than 20%”. Also, in assay [3], the “pathology lab findings of treated pulp sample” value is “debris, bacteria, and enamel cement”.

As to `CCCCCc1cc(O)c2c(c1)OC(C)(C)[C@@H]1CC=C(C)C[C@@H]21` [Δ8-THC], in assay [4], the “less active than THC” value is listed as roughly 20%.
